Data as given in ChEMBL document CHEMBL5038669, “Development of the First Covalent Monopolar Spindle Kinase 1 (MPS1/TTK) Inhibitor” (J Med Chem, 2022).
Active and inactive are the calls of the source. The calls are words filed in the database; no cut-off is given here.

Tests used:
[1] = molecular target: T1, Dual specificity protein kinase TTK (Homo sapiens, UniProt P33981); assay: Displacement of tracer K9 from NanoLuc-fused MPS1 (unknown origin) expressed in HEK293T cells measured after 2 hrs by NanoBRET assay; assay type: cell-based
T1 sequence (P33981 whole entry): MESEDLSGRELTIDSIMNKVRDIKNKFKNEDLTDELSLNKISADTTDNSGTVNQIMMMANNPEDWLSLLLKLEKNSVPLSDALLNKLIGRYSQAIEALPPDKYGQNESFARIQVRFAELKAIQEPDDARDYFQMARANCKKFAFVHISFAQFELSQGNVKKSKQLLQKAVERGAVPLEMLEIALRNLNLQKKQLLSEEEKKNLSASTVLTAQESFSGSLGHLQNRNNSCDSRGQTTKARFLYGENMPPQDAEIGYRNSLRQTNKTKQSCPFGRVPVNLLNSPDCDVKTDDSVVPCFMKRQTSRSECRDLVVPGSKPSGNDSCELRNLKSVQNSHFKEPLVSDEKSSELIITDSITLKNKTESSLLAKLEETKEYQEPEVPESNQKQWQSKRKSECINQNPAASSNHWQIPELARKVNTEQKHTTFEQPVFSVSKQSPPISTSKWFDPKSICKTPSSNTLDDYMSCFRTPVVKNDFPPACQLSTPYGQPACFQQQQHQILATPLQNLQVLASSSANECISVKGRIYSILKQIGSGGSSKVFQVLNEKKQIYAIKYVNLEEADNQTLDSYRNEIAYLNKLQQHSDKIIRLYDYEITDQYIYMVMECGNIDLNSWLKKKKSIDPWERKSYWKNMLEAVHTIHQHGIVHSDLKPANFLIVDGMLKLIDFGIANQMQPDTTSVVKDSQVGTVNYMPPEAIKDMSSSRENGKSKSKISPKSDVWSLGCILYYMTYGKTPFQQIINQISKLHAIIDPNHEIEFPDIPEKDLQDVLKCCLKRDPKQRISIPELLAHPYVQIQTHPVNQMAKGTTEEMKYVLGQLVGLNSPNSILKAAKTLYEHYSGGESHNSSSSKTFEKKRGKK

[2] = molecular target: T1, Dual specificity protein kinase TTK; assay: Inhibition of recombinant human full length N-terminal GST-fused MPS1 (1 to 857 residues) using histone H3 as substrate by TR-FRET assay
[3] = molecular target: T2, Serine/threonine-protein kinase 17B (Homo sapiens) (UniProt O94768); details: dose 10.0 µM
T2 sequence (whole entry): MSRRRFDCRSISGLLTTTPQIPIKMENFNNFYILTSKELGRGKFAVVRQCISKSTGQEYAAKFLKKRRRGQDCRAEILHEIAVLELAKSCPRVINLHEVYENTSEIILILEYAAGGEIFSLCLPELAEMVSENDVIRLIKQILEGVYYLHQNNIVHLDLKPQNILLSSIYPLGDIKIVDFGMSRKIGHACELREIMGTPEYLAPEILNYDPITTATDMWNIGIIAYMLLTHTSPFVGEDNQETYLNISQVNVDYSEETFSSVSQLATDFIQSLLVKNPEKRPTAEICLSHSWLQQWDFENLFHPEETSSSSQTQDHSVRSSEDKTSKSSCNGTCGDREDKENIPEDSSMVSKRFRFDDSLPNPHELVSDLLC

[4] = molecular target: T3, Dual specificity protein kinase TTK (Homo sapiens) (UniProt P33981); assay: Displacement of tracer K9 from NanoLuc-fused MPS1 (unknown origin) expressed in HEK293T cells at 10 fold IC50 preincubated for 2 hrs followed by compound washout by NanoBRET assay; assay type: cell-based
T3 sequence (whole entry): T1 sequence (P33981 whole entry)

Row | IC50 [1] [nM] | IC50 [2] [nM] | ΔTm [3] [°C] | Activity [4] | SMILES
1 | 32.7 | 9.06 | 17.4 |  | CCC(=O)Nc1cc(N2CCN(C)CC2)ccc1Nc1ncc2c(n1)-n1ccc(C(=O)Nc3c(CC)cccc3CC)c1CC2
2 |  |  | 11.5 | inactive | COc1cc(OC2CCN(C)CC2)ccc1Nc1ncc2c(n1)n(C1CCCC1)c(=O)n2C
